In patent US9622469B2, “Crosslink breakers for preservation of biological substances” (priority 2013, dated 2017):
“Also recorded” adds a separate entry of the source.

Columns and labels:
[1] = NHC-mediated cleavage of benzil (15), Method B; assay type: biochemical; conditions: LCMS, with respect to dicarbonyl
Procedure: 60 mM solution of dicarbonyl substrate (45 μmol) in MeCN (0.75 ml) was added to 20 mM solution of NHC (15 μmol) in 0.15 M pH 7.4 sodium phosphate buffer (0.75 ml) and kept stirred at 37° C. At stated times, 75 μl aliquots were taken, diluted with 50% MeCN/H2O (425 μl) and analyzed by LCMS with 2,4-dihydroxyquinoline (248 μM) as an internal standard. The cleavage products were quantified by peak integration against the calibration curves.
Our efforts to investigate the scope of thiazolium salt-mediated reactions with dicarbonyls began with bis-alkyl diketone 14 (Table 3, Entry 1). This substrate is cleaved cleanly by 2, and affords acid 18 in 82% yield. NHC precursor 4, on the other hand, provides 18 in only 14% yield (Entry 2). The efficiency of dicarbonyl cleavage reactions decreases substantially in the case of benzil (15, Entry 3), which affords benzoic acid in 14% and 1% yield following exposure to 2 and 4, respectively.

[2] = Trapping of methylglyoxal under physiological conditions (PBS); assay type: biochemical; conditions: 37° C., 24 hours, MGO at pathologically relevant concentration (4-6 μM)
Procedure: For trapping under physiological conditions (FIG. 5), 12.5 μl of 2 (40 mM stock) and 7.7 μl of MGO (6.5 mM stock) were added to PBS (4.98 ml) and kept stirred at 37° C. At stated times, 445 μl of the reaction mixture was taken, quenched with 1 M HCl (5 μl) and analyzed by LCMS after adding 50 μl of 3 mM 4-methoxybenzhydrol as an internal standard. Yield of ALT-MGO (20) was determined by peak integration (m/z=304) against a calibration curve.
Recognizing the reaction conditions employed above were non-physiological, we wanted to test if ALT-711 could efficiently trap methylglyoxal (MGO, 17) at a pathologically relevant concentration (4-6 μM). We obtained ALT-MOO adduct (20) in PBS with a 53% yield at 24 hours (FIG. 5B). […] The trapping of MGO by ALT-711 may be the mechanism for the observed effects.

[3] = Stability studies of NHC precursors under the PPD cleavage reaction conditions; assay type: physicochemical; conditions: exposure to PPD, Method B conditions
Excerpt: Instead, 7 gave rise predominantly to an oxalamide derivative, which is believed to form via dimerization and oxidation of intermediate carbenes. […] Stability studies afforded additional insights.
In cleavage of PPD with ALT-711 (2), we detected several decomposition products of the catalyst that appear to be adducts between 2 and an acetyl group, the remainder of PPD following the release of benzoic acid. One adduct that has been isolated and characterized explains why the concentration of ALT-711 diminishes after cleaving PPD while the benzyl counterpart (4) behaves as a stable catalyst. Instead of liberating acetaldehyde and re-entering the catalytic cycle, oxidation of alcohol 13 to the corresponding methyl ketone followed by an aldol condensation with the phenyl ketone gives rise to a thiazolopyridinium derivative (see Supplementary Material for details).

mouse RBC = test: Storage of leukoreduced mouse blood in CPDA-1 at 4° C.: hemolysis and intact RBC count; assay type: cell-based; conditions: CPDA-1 buffer; for RBC viability / intact RBCs (hemocytometer): 13 days
Procedure: FIG. 1 illustrates OCR6043-mediated prolonging of the integrity of stored RBCs. Leuko reduced mouse blood was stored under FDA-approved storage conditions (CPDA-1 buffer at 4° C.) for up to 13 days, in either OCR6043, control compound (structurally similar to OCR6043, but nonfunctional as a AGE crosslink breaker), or without any additive.
This solution was stored at 4° C. according to FDA-approved conditions for 13 days. […] The steps to collect HOD blood from mice and the addition of the FDA-approved storage buffer CPDA are described in Hendrickson et al., Transfusion of fresh murine red blood cells reverses adverse effects of older stored red blood cells, Transfusion (2011) Vol. 12, pp. 2695-2702.
We also counted the intact RBCs using a hemocytometer after 13 days of storage as also depicted in FIG. 1.

[4] = system: HOD alloantigen on stored RBCs; test: Immunogenicity of stored blood upon transfusion (anti-HOD IgG ELISA); assay type: in vivo, mouse; conditions: blood stored 14 days, transfused into B6 mice, 14 days following transfusion
Procedure: Leuko-reduced mouse blood was stored under typical storage conditions for up to 14 days, in either OCR6043, control compound, or without any treatment. FIG. 2A illustrates an analysis of glucose in the serum from the stored blood was evaluated using a glucose oxidase enzymatic assay. […] FIG. 2B illustrates the AGE precursor levels on RBCs were measured using a dicarbonyl-specific fluorophore that was developed in-house. The time dependent increase in the AGE precursor levels was dampened in the presence of OCR6043. FIG. 2C illustrates mouse blood that was stored for 14 days, was evaluated for its immunogenicity upon transfusion, by testing for IgGs against an alloantigen on the RBCs (HOD=HEL-OVA-Duffy).
OCR6043 treatment decreases immunogenicity, and enhances post-transfusion recovery of stored mouse blood. Leukoreduced mouse blood was stored under typical storage conditions for up to 14 days in either OCR6043 or without any treatment. This mouse blood was evaluated for its immunogenicity upon transfusion by testing for IgGs against an alloantigen on the RBCs (HOD=HEL-OVA-Duffy).
As described herein, the stored blood has an HOD marker allowing facile detection after transfusion. We transfused […] of stored blood into B6 mice (not expressing the HOD antigen). […] The anti-HOD IgG response was evaluated using standard ELISA techniques described in Hendrickson et at.

Cc1sc[n+](CC(=O)c2ccccc2)c1C.[Cl-] [Compound 2]
% Yield of PhCO2H from substrate 15 (benzil) [1]: 14% | Yield of ALT-MGO adduct (20) [2]: 53% | Stability of NHC precursor under the reaction conditions [3]: disappear from solution | RBC viability / intact RBCs (hemocytometer) (mouse RBC; listed as ALT-711): higher levels of intact RBCs | RBC viability / intact RBCs (hemocytometer) (mouse RBC; listed as OCR6043): superior cell viability | Hemolysis of stored blood (supernatant appearance) (mouse RBC; up to 13 days, 12 mM): unhemolyzed | Immunogenicity upon transfusion (IgG against HOD alloantigen) ([4]; listed as ALT-711): lower immunogenicity | Immunogenicity upon transfusion (IgG against HOD alloantigen) ([4]; listed as OCR6043): decreased immunogenicity; also recorded: attenuated this immune response
